Experimental data as given in patent US9376371B2, “Triphenylamine derivative, method for manufacturing the same, and electrophotographic photosensitive member” (KYOCERA DOCUMENT SOLUTIONS INC., priority 2013, dated 2016).

Tests used:
[1] = Evaluation of ionization potential (AC-1 ultraviolet photoelectron analyzer); type: physicochemical; conditions: atmosphere type ultraviolet photoelectron analyzing apparatus AC-1
Excerpt: The respective triphenylamine derivatives HTM-1 to HTM-14 were each evaluated for the ionization potential. An atmosphere type ultraviolet photoelectron analyzing apparatus (AC-1 manufactured by Riken Keiki Co., Ltd.) was used to measure the ionization potential.

[2] = Evaluation of solubility in tetrahydrofuran; type: physicochemical; conditions: 25° C., {100/(100+X)}×100
Experimental: The thus obtained triphenylamine derivatives HTM-1 to HTM-14 each as the hole transport material were evaluated for the solubility. A small amount of tetrahydrofuran was added to 100 mg of each triphenylamine derivative under the temperature of 25° C. Then, the resulting sample was vibrated and left to stand. This process was repeated to measure the added amount X (mg) of tetrahydrofuran dissolved in the triphenylamine derivative to saturation. With the added amount X, the equation below gives the solubility. Solubility (%)={100/(100+X)}×100 <Evaluation of Ionization Potentials>

Compound | Ionization Potential [1] | THF Solubility [2]
CCOc1ccccc1N(c1ccc(/C=C/C=C/c2ccccc2)cc1)c1ccc(/C=C/C=C/c2ccccc2)cc1 [HTM-1] | 5.38 eV | 25.0%
CCOc1cccc(C)c1N(c1ccc(/C=C/C=C/c2ccccc2)cc1)c1ccc(/C=C/C=C/c2ccccc2)cc1 [HTM-2] | 5.37 eV | 23.5%
COc1ccc(N(c2ccc(/C=C/C=C/c3ccccc3)cc2)c2ccc(/C=C/C=C/c3ccccc3)cc2)c(C)c1 [HTM-6] | 5.38 eV | 24.5%
CCOc1ccc(N(c2ccc(/C=C/C=C/c3ccccc3)cc2)c2ccc(/C=C/C=C/c3ccccc3)cc2)c(C)c1 [HTM-7] | 5.39 eV | 25.8%
C(/C=C/c1ccc(N(c2ccc(/C=C/C=C/c3ccccc3)cc2)c2ccc(Oc3ccccc3)cc2)cc1)=C\c1ccccc1 [HTM-8] | 5.48 eV | 21.0%
Cc1ccc(N(c2ccc(/C=C/C=C/c3ccccc3)cc2)c2ccc(/C=C/C=C/c3ccccc3)cc2)c(C)c1 [HTM-9] | 5.46 eV | 12.3%
Cc1cccc(C)c1N(c1ccc(/C=C/C=C/c2ccccc2)cc1)c1ccc(/C=C/C=C/c2ccccc2)cc1 [HTM-11] | 5.55 eV | 11.4%
COc1ccc(N(c2ccc(/C=C/C=C/c3ccccc3)cc2)c2ccc(/C=C/C=C/c3ccccc3)cc2)cc1 [HTM-12] | 5.43 eV | 7.5%

The remaining lines, values ahead:

Ionization Potential [1] | THF Solubility [2] | Compound
5.39 eV | 24.1% | CCCCOc1ccccc1N(c1ccc(/C=C/C=C/c2ccccc2)cc1)c1ccc(/C=C/C=C/c2ccccc2)cc1 [HTM-3]
5.39 eV | 22.8% | CCOc1cc(C)ccc1N(c1ccc(/C=C/C=C/c2ccccc2)cc1)c1ccc(/C=C/C=C/c2ccccc2)cc1 [HTM-4]
5.33 eV | 20.0% | COc1ccc(N(c2ccc(/C=C/C=C/c3ccccc3)cc2)c2ccc(/C=C/C=C/c3ccccc3)cc2)c(OC)c1 [HTM-5]
5.42 eV | 17.8% | CCCCc1ccc(N(c2ccc(/C=C/C=C/c3ccccc3)cc2)c2ccc(/C=C/C=C/c3ccccc3)cc2)cc1 [HTM-10]
5.45 eV | 6.1% | COc1cccc(N(c2ccc(/C=C/C=C/c3ccccc3)cc2)c2ccc(/C=C/C=C/c3ccccc3)cc2)c1 [HTM-13]
5.43 eV | 6.3% | COc1ccccc1N(c1ccc(/C=C/C=C/c2ccccc2)cc1)c1ccc(/C=C/C=C/c2ccccc2)cc1 [HTM-14]
